Measured values from US20220193013A1, “Pharmaceutical Composition for Treatment or Prevention of Multiple Inflammatory Disorders” (priority 2020, published 2022).

System: DIO mice (C57BL/6NTac, high fat diet)
Experiment: body weight study in diet-induced obese (DIO) mice, 56 days
Assay type: in vivo, mouse
Settings: DA 92.4 mg/kg, CQL 50 mg/kg, gavage BID
Description: This example provides results of a study of DA plus another compound (CQL) on body weight in diet-induced (DIO) mice. Adult C57BL/6NTac mice were fed with a high fat diet (60%). Vehicle group (N=15) were treated with distilled water by gavage BID, CQL (N=15) were treated at 50 mg/kg by gavage BID, and DA (N=15) at a dose of 92.4 mg/kg by gavage BID. The study period was for 56 days+2-3 days testing period afterward. […] Metabolic biomarkers were measured on days 28 and 56. Cytokine analysis on Days 28 and 56. Serum levels of GLP-1, GLP-2, and CCK at 1 h after dosing on Days 1 and 56, and at 2 h after dosing on Day 7 (dosing (>6 h fasting prior to dosing until after blood collection); and serum level of PPY on Day 56.

SMILES: Oc1c(I)cc(Cl)c2cccnc12 [CQL]
- serum HbA1c level at Day 28: significantly reduced
- serum HbA1c level at Day 56: considerably increased
- daily water intake at Day 28 (compared to vehicle): significantly decreased
